Results published in the supplement of paper PMC11061612.

Assays:
[1] = compound: C1CC(C1)(C(=O)[O-])C(=O)[O-].N.N.[Pt+2] [Carboplatin]; conditions: max 10 µM
Outline: (§1)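 Cancer cell lines in 1536-well plates (7.5 μl DMEM/F12 or RPMI, 10% FBS) were held 24 hours at 37°C and 5% CO2 and then dosed for 72 hours at a final DMSO of typically 0.2%. Viability was taken from CellTiter-Glo 2.0 luminescence, scaled between blank-well and DMSO-well means. Curves were fitted as two-parameter logistic models with a non-linear mixed effects model, from which the single-agent IC50 was taken.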

[2] = compound: C1CN(CCC1(C(=O)N[C@@H](CCO)C2=CC=C(C=C2)Cl)N)C3=NC=NC4=C3C=CN4 [AZD5363]; conditions: max 10 µM
Outline: as §1

[3] = compound: C=CCn1c(=O)c2cnc(Nc3ccc(N4CCN(C)CC4)cc3)nc2n1-c1cccc(C(C)(C)O)n1 [AZD1775]; conditions: max 3 µM
Outline: as §1

[4] = compound: CC(=O)Nc1cccc(-n2c(=O)n(C3CC3)c(=O)c3c(Nc4ccc(I)cc4F)n(C)c(=O)c(C)c32)c1 [Trametinib]; conditions: max 1 µM
Outline: as §1

[5] = compound: CC(=O)O[C@H]1C(=O)[C@@]2(C)[C@H]([C@H](OC(=O)c3ccccc3)[C@]3(O)C[C@H](OC(=O)[C@H](O)[C@@H](NC(=O)c4ccccc4)c4ccccc4)C(C)=C1C3(C)C)[C@]1(OC(C)=O)CO[C@@H]1C[C@@H]2O [Paclitaxel]; conditions: max 3 µM
Outline: as §1

[6] = compound: CC(=O)c1c(C)c2cnc(Nc3ccc(N4CCNCC4)cn3)nc2n(C2CCCC2)c1=O [Palbociclib]; conditions: max 10 µM
Outline: as §1

[7] = compound: CC(C)n1c(=O)n(C)c2cnc3cc(F)c(-c4ccc(OCCCN5CCCCC5)nc4)cc3c21 [AZD1390]; conditions: max 0.3 µM
Outline: as §1

[8] = compound: CC1(C)CCC(CN2CCN(c3ccc(C(=O)NS(=O)(=O)c4ccc(NCC5CCOCC5)c([N+](=O)[O-])c4)c(Oc4cnc5[nH]ccc5c4)c3)CC2)=C(c2ccc(Cl)cc2)C1 [Venetoclax]; conditions: max 1 µM
Outline: as §1

[9] = compound: CC1=C(C(=CC=C1)Cl)NC(=O)C2=CN=C(S2)NC3=CC(=NC(=N3)C)N4CCN(CC4)CCO [Dasatinib]; conditions: max 2 µM
Outline: as §1

[10] = compound: CC1=CN2[C@@H](C1)C=NC3=CC(=C(C=C3C2=O)OC)OCCCCCOC4=C(C=C5C(=C4)N=C[C@@H]6CC(=CN6C5=O)C)OC [SG3199]; conditions: max 0.001 µM
Outline: as §1

[11] = compound: CCN(CCO)CCCOc1ccc2c(Nc3cc(CC(=O)Nc4cccc(F)c4)[nH]n3)ncnc2c1 [AZD2811]; conditions: max 1 µM
Outline: as §1

[12] = compound: CCc1c2c(nc3ccc(O)cc13)-c1cc3c(c(=O)n1C2)COC(=O)[C@]3(O)CC [SN-38]; conditions: max 0.3 µM
Outline: as §1

[13] = compound: CN(C)CCCOc1ccc(-c2ccc3ncc4c(c3c2)n(C2CCOCC2)c(=O)n4C)cn1 [AZD0156]; conditions: max 3 µM
Outline: as §1

[14] = compound: CN(CC[C@H](CSC1=CC=CC=C1)NC2=C(C=C(C=C2)S(=O)(=O)NC(=O)C3=CC=C(C=C3)N4CCC(CC4)[C@H](C5=CC=CC=C5C6=CC=C(C=C6)Cl)O)S(=O)(=O)C(F)(F)F)CCO [AZD4320]; conditions: max 1 µM
Outline: as §1

[15] = compound: COc1cc(Nc2ncc3c(n2)-c2ccc(Cl)cc2C(c2c(F)cccc2OC)=NC3)ccc1C(=O)O [Alisertib]; conditions: max 10 µM
Outline: as §1

[16] = compound: COc1cc([C@@H]2c3cc4c(cc3[C@@H](O[C@@H]3O[C@@H]5CO[C@@H](C)O[C@H]5[C@H](O)[C@H]3O)[C@H]3COC(=O)[C@H]23)OCO4)cc(OC)c1O [Etoposide]; conditions: max 10 µM
Outline: as §1

[17] = compound: COc1cc2ncnc(Nc3ccc(F)c(Cl)c3)c2cc1OCCCN1CCOCC1 [Gefitinib]; conditions: max 10 µM
Outline: as §1

[18] = compound: COc1cccc(OCCCN)c1-c1cc(Nc2cnc(C#N)cn2)n[nH]1 [Prexasertib]; conditions: max 1 µM
Outline: as §1

[19] = compound: COc1cccc2c1C(=O)c1c(O)c3c(c(O)c1C2=O)C[C@@](O)(C(=O)CO)C[C@@H]3O[C@H]1C[C@H](N)[C@H](O)[C@H](C)O1 [Doxorubicin]; conditions: max 1 µM
Outline: as §1

[20] = compound: COc1nnc2ccc(N3CCC(c4ccc(OCCN5CCN(C)C(=O)[C@H]5C)cc4)CC3)nn12 [AZD5153]; conditions: max 1 µM
Outline: as §1

[21] = compound: CS(=O)(=O)CCNCc1ccc(-c2ccc3ncnc(Nc4ccc(OCc5cccc(F)c5)c(Cl)c4)c3c2)o1 [Lapatinib]; conditions: max 10 µM
Outline: as §1

[22] = compound: C[C@@H](Nc1cc(F)cc(F)c1)c1cc(C(=O)N(C)C)cc2c(=O)cc(N3CCOCC3)oc12 [AZD8186]; conditions: max 10 µM
Outline: as §1

[23] = compound: C[C@@H](Oc1cc(-c2cnn(C3CCNCC3)c2)cnc1N)c1c(Cl)ccc(F)c1Cl [Crizotinib]; conditions: max 10 µM
Outline: as §1

[24] = compound: C[C@@H](c1ccc2nccn2c1)n1nnc2ncc(-c3cnn(C)c3)nc21 [Savolitinib]; conditions: max 1 µM
Outline: as §1

[25] = compound: C[C@@H]1COCCN1C2=NC(=NC(=C2)C3(CC3)[S@](=N)(=O)C)C4=C5C=CNC5=NC=C4 [AZD6738]; conditions: max 10 µM
Outline: as §1

[26] = compound: Cc1c2c(nn1C)CSCc1cc(n(C)n1)CSc1cc(c3ccccc3c1)OCCCc1c(C(=O)O)n(C)c3c-2c(Cl)ccc13 [AZD5991]; conditions: max 1 µM
Outline: as §1

[27] = compound: Cc1cc2ncnn2cc1Nc1ncc2c(n1)n(C1CCOCC1)c(=O)n2C [AZD7648]; conditions: max 10 µM
Outline: as §1

[28] = compound: Cc1nc(-c2cn3c(n2)-c2ccc(-c4cnn(C(C)(C)C(N)=O)c4)cc2OCC3)n(C(C)C)n1 [Taselisib]; conditions: max 10 µM
Outline: as §1

[29] = compound: Cn1cnc2c(F)c(Nc3ccc(Br)cc3Cl)c(C(=O)NOCCO)cc21 [Selumetinib]; conditions: max 10 µM
Outline: as §1

[30] = compound: N#Cc1cnc(Nc2cc(NC[C@H]3CNCCO3)c(C(F)(F)F)cn2)cn1 [SRA737]; conditions: max 10 µM
Outline: as §1

[31] = compound: NC1(c2ccc(-c3nc4ccn5c(=O)[nH]nc5c4cc3-c3ccccc3)cc2)CCC1 [MK-2206]; conditions: max 10 µM
Outline: as §1

[32] = compound: Nc1ccn([C@@H]2O[C@H](CO)[C@@H](O)C2(F)F)c(=O)n1 [Gemcitabine]; conditions: max 0.3 µM
Outline: as §1

[33] = compound: O=C(Nc1ccc2[nH]nc(-c3ccncc3)c2c1)[C@@H]1CCN(CC(=O)N2CCN(c3ccc(-c4ncccn4)cc3)CC2)C1; conditions: max 5 µM
Outline: as §1

[34] = compound: O=C(c1cc(Cc2n[nH]c(=O)c3ccccc23)ccc1F)N1CCN(C(=O)C2CC2)CC1 [Olaparib]; conditions: max 10 µM
Outline: as §1

[35] = compound: O=c1[nH]cc(F)c(=O)[nH]1 [5-Fluorouracil]; conditions: max 20 µM
Outline: as §1

Row | Cell Line | IC50, cell viability 72 h [1] [nM] | IC50, cell viability 72 h [2] [nM] | IC50, cell viability 72 h [3] [nM] | IC50, cell viability 72 h [4] [nM] | IC50, cell viability 72 h [5] [nM] | IC50, cell viability 72 h [6] [nM] | IC50, cell viability 72 h [7] [nM] | IC50, cell viability 72 h [8] [nM] | IC50, cell viability 72 h [9] [nM] | IC50, cell viability 72 h [10] [nM] | IC50, cell viability 72 h [11] [nM] | IC50, cell viability 72 h [12] [nM] | IC50, cell viability 72 h [13] [nM] | IC50, cell viability 72 h [14] [nM] | IC50, cell viability 72 h [15] [nM] | IC50, cell viability 72 h [16] [nM] | IC50, cell viability 72 h [17] [nM] | IC50, cell viability 72 h [18] [nM] | IC50, cell viability 72 h [19] [nM] | IC50, cell viability 72 h [20] [nM] | IC50, cell viability 72 h [21] [nM] | IC50, cell viability 72 h [22] [nM] | IC50, cell viability 72 h [23] [nM] | IC50, cell viability 72 h [24] [nM] | IC50, cell viability 72 h [25] [nM] | IC50, cell viability 72 h [26] [nM] | IC50, cell viability 72 h [27] [nM] | IC50, cell viability 72 h [28] [nM] | IC50, cell viability 72 h [29] [nM] | IC50, cell viability 72 h [30] [nM] | IC50, cell viability 72 h [31] [nM] | IC50, cell viability 72 h [32] [nM] | IC50, cell viability 72 h [33] [nM] | IC50, cell viability 72 h [34] [nM] | IC50, cell viability 72 h [35] [nM]
1 | KATOIII (Gastric Carcinoma) | > 10000 | > 10000 | > 3000 | 893 | > 3000 | > 10000 | > 300 | > 1000 | > 2000 | > 1 | > 1000 | > 300 | > 3000 | > 1000 | 1790 | > 10000 | > 10000 | 420 | > 1000 | > 1000 | > 10000 | > 10000 | > 10000 | > 1000 | > 10000 | > 1000 | > 10000 | > 10000 | > 10000 | > 10000 | > 10000 | > 300 | 4460 | > 10000 | 14300
2 | SW1990 (Pancreatic Carcinoma) | > 10000 | > 10000 | > 3000 | > 1000 | > 3000 | > 10000 | > 300 | > 1000 | > 2000 | > 1 | > 1000 | > 300 | > 3000 | > 1000 | > 10000 | > 10000 | > 10000 | 49.9 | > 1000 | > 1000 | > 10000 | > 10000 | > 10000 | > 1000 | > 10000 | > 1000 | > 10000 | > 10000 | > 10000 | 9750 | > 10000 | > 300 | > 5000 | > 10000 | > 20000
